The values below come from article PMC9959553, “Promising Antifungal Molecules against Mucormycosis Agents Identified from Pandemic Response Box®: In Vitro and In Silico Analyses” (Journal of Fungi, 2023).

The test system of the test is R. oryzae UCP1295. Nature of the test: Screening of the Pandemic Response Box library at 5 µM. It counts as cell-based, Rhizopus oryzae. The note with it: 48 h, Table S1, mean of the four values. The procedure:
Rhizopus oryzae UCP is the most prevalent Mucorales species in human infections and was used as a reference strain to screen the Pandemic Response Box® library. Screening was performed according to Rollin-Pinheiro and colleagues. Each compound was diluted in RPMI 1640 medium (Sigma Chemical Co., St. Louis, MO, USA), supplemented with 2% glucose and buffered with 3-(N-morpholino) propanesulfonic acid (MOPS) (Sigma Chemical Co., St. Louis, MO, USA) (0.165 mol/L, pH 7.2, from here on referred to as ‘supplemented RPMI’) to reach 5 μM in 96-well microtiter plates. Posaconazole (5 μM) and supplemented RPMI containing 1% DMSO were used as controls (both from Sigma Chemical Co., St. Louis, MO, USA). Conidia (2 × 10^5/mL) were added and incubated for 48 h at 37 °C in a 5% CO2 atmosphere. […] An inhibition of at least 60% was defined as the cut-off to select the promising drugs with antifungal activity against the Rhizopus species.
As to `Cc1c(CN(C)C(=O)/C=C/c2cnc3c(c2)C(C)(C)C(=O)N3)oc2ccccc12` [MMV1579788], the “% of growth inhibition, Mean” value was -28.8%.
In the case of `CC(=O)O[C@H]1C[C@@]2(C)[C@@H](C[C@@H](O)[C@H]3[C@@]4(C)CC[C@@H](O)[C@@H](C)[C@@H]4CC[C@@]32C)/C1=C(\CCC=C(C)C)C(=O)O` [MMV1578575] it was -21.4%; in that of `FC(F)(F)c1cc(C(F)(F)F)c2ccc3nc(-c4nnco4)cn3c2n1` [MMV690555], -25.6%.
As to `CCCCOC(=O)Nc1cc2nc(C3CCCCC3)[nH]c2cc1N(CC)CC` [MMV1578842], the “% of growth inhibition, Mean” value is reported as -0.4%.
`NCc1ccc(S(N)(=O)=O)cc1` [MMV002665]: the “% of growth inhibition, Mean” value is -2.2%.
For `Cc1ncc([N+](=O)[O-])n1CC(C)O` (centres unmarked) [MMV002287], the “% of growth inhibition, Mean” value is -34.1%.
On to `O=C(c1nc2c(C(F)(F)F)cc(C3CC3)cn2c1Cl)N1CCN([C@H]2CC[C@H](O)CC2)C(=O)C1` [MMV1634396], for which the “% of growth inhibition, Mean” value was -11.9%.
In the case of `COc1cc(NC(=O)CN2C(=O)NC(c3ccccc3)(c3ccccc3)C2=O)cc(OC)c1` [MMV1578572], the “% of growth inhibition, Mean” value is reported as -14.6%.
In the case of `O=[N+]([O-])c1cn(Cc2nc(O)nc(O)c2Br)cn1` [MMV1579777], the “% of growth inhibition, Mean” value is on record as -6.3%.
Then `N[C@H]1CCC[C@H]1C(=O)O` [MMV1634361], with -8.8%; and `C[C@@H]1O[C@@H]1P(=O)(O)O` [MMV002354], with -22.5%.
In the case of `CCN1CCN(Cc2nc3ccc([N+](=O)[O-])cc3c(=O)n2-c2ccccc2F)CC1` [MMV275100], the “% of growth inhibition, Mean” value is on record as -8.8%.
Then `NC(=O)c1ccccc1NC(=O)c1ccc(C(=O)Nc2ccccc2C(N)=O)cc1` [MMV508427], with -9.9%; and `CC(=O)NC[C@H]1CN(c2ccc(N3CCSCC3)c(F)c2)C(=O)O1` [MMV688756], with -8.2%; and `C=C[C@]1(C)C[C@@H](OC(=O)CS[C@@H]2C[C@H]3CC[C@@H](C2)N3C)[C@]2(C)[C@H](C)CC[C@]3(CCC(=O)[C@H]32)[C@@H](C)[C@@H]1O` [MMV1633674], with -19.9%.
Consider `CC(C)(C)c1ccc(C(=O)NC(=O)N2CCCc3ccccc32)cc1` [MMV1782212], for which the “% of growth inhibition, Mean” value was -4.9%.
Take `c1cnc(NCc2ccc(CNc3ncccn3)cc2)nc1` [MMV1580490]: the “% of growth inhibition, Mean” value is recorded as -10.6%.
With `O=C(O)[C@H]1C2CCC(CC2)[C@@H]1Nc1nc(-c2c[nH]c3ncc(F)cc23)ncc1F` [MMV1593516], the “% of growth inhibition, Mean” value was -10.6%.
`NC(=O)c1ccc(I)c([N+](=O)[O-])c1` [MMV1581035]: the “% of growth inhibition, Mean” value was -5.0%.
As for `CN(C)CCCNC(=O)c1ccc(-c2cc(O)c3ncccc3c2)cc1` [MMV1580488], the “% of growth inhibition, Mean” value came out at 37.5%.
Regarding `CO/N=C(\C(=O)N[C@@H]1C(=O)N2C(C(=O)OCOC(=O)C(C)(C)C)=C(/C=C\c3scnc3C)CS[C@H]12)c1csc(N)n1` [MMV002560], the “% of growth inhibition, Mean” value is -6.4%.
Turning to `CN(C)[C@@H]1C(=O)C(C(N)=O)=C(O)[C@@]2(O)C(=O)C3=C(O)c4c(O)c(NC(=O)CN5CCCC5)cc(F)c4C[C@H]3C[C@@H]12.Cl.Cl` [MMV1578574], the “% of growth inhibition, Mean” value is recorded as -44.3%.
Then `CCc1cc(CCCOc2c(C)cc(-c3noc(C(F)(F)F)n3)cc2C)on1` [MMV1634556], with 10.0%.
Then `CCC(C)NCC(O)Cn1c2ccc(Cl)cc2c2cc(Cl)ccc21` (centres unmarked) [MMV1578570], with -22.7%; and `CC(C)(C)NC(=O)[C@@H]1C[C@@H]2CCCC[C@@H]2CN1C[C@@H](O)[C@H](Cc1ccccc1)NC(=O)[C@H](CC(N)=O)NC(=O)c1ccc2ccccc2n1` [MMV637879], with 25.0%.
Regarding `N#C/C(=C1/SC[C@@H](c2ccc(Cl)cc2Cl)S1)n1ccnc1` [MMV1782224], the “% of growth inhibition, Mean” value was -14.5%.
In the case of `N=c1n(CCN2CCCCC2)c2ccccc2n1CC(O)COc1ccc(Cl)cc1Cl` (centres unmarked) [MMV394033], the “% of growth inhibition, Mean” value is on record as -0.8%.
`OCCCCn1cnc2c(O)nc(NCc3ccc(Cl)c(Cl)c3)nc21` [MMV1593542]: the “% of growth inhibition, Mean” value is recorded as -14.0%.
In the case of `c1ccc(Cn2c(-c3ccccn3)nc3ccccc32)cc1` [MMV1578886] it was -11.3%.
For the compound `CCc1c(O)nc2ccc(F)cc2c1OCC1CCC1` [MMV1634395], the “% of growth inhibition, Mean” value was -20.7%.
`COc1cc(C(C)(C)CCCC(C)C)cc(OC)c1OC` [MMV1782102]: the “% of growth inhibition, Mean” value is reported as -11.2%.
As for `CC(C)(C)NC(=O)[C@@H]1CN(Cc2cnc3occc3c2)CCN1C[C@@H](O)C[C@@H](Cc1ccccc1)C(=O)N[C@H]1c2ccccc2C[C@H]1O` [MMV1782353], the “% of growth inhibition, Mean” value was -11.2%.
Take `CC(C)Cn1c(=O)n(C)c(=O)c2c(-c3cncn3C)n(Cc3cccc4ccccc34)nc21` [MMV1581559]: the “% of growth inhibition, Mean” value is reported as -18.9%.
Take `CN(C)c1[nH]c(=O)ncc1F` [MMV1782223]: the “% of growth inhibition, Mean” value is -26.3%.
For the compound `CC1(C)[C@H](C(=O)O)N2C(=O)C[C@H]2S1(=O)=O` [MMV637945], the “% of growth inhibition, Mean” value is -27.5%.
With `CN1CCN(c2ccc3[nH]c(-c4ccc5[nH]c(-c6ccc(O)cc6)nc5c4)nc3c2)CC1` [MMV020752], the “% of growth inhibition, Mean” value is recorded as -8.9%.
Then `N#CCN1C(=O)COc2cc(F)c(N3C(=O)c4ccccc4C3=O)cc21` [MMV1579785], with -18.3%; and `O=C(O)c1ccccc1Sc1ncnc2sc3c(c12)CCC3` [MMV1579878], with -41.9%.
On to `O=C(Nc1ncc(Cc2cccc3ccccc23)s1)C1CCCCC1` [MMV1593532], for which the “% of growth inhibition, Mean” value was -14.7%.
In the case of `O=C(NN1C(=O)[C@@H]2C3C=CC([C@H]4C[C@@H]34)[C@@H]2C1=O)c1ccc(C(F)(F)F)cc1` [MMV1782114], the “% of growth inhibition, Mean” value is recorded as -5.7%.
With `Nc1nc(-c2ccccc2)nc2[nH]nc(Nc3ccc(C(F)(F)F)cc3)c12` [MMV1633968], the “% of growth inhibition, Mean” value came out at 4.3%.
In the case of `O=S(=O)(Nc1ccccc1)c1ccc(NC(=S)Nc2ccccc2)cc1` [MMV1578562], the “% of growth inhibition, Mean” value is listed as -19.4%.
In the case of `CC(C)N(c1cc(-c2ccccc2)sc1C(=O)O)C(=O)[C@H]1CC[C@H](C)CC1` [MMV1634388] it was -4.7%.
Take `Fc1ccc(-c2nc(-c3c[nH]c4ccc(Br)cc34)[nH]c2-c2ccc(F)cc2)cc1` [MMV1593537]: the “% of growth inhibition, Mean” value is listed as -11.7%.
Turning to `COc1ccc(CNC(=O)C(NS(=O)(=O)c2ccc3nc(C)sc3c2)C(C)C)cc1` (centres unmarked) [MMV303733], the “% of growth inhibition, Mean” value is -8.6%.
Turning to `O=C(NC(=O)N1CCCc2ccccc21)c1cccc(Cl)c1` [MMV1782351], the “% of growth inhibition, Mean” value is -17.9%.
With `Nc1nc2c(ncn2/C=C2/CC2(CO)CO)c(=O)[nH]1` [MMV1782210], the “% of growth inhibition, Mean” value is -16.4%.
In the case of `CC[C@H](NC(=O)[C@H](C)NC)C(=O)N1C[C@@H](O)C[C@H]1Cc1c(-c2[nH]c3cc(F)ccc3c2C[C@@H]2C[C@H](O)CN2C(=O)[C@H](CC)NC(=O)[C@H](C)NC)[nH]c2cc(F)ccc12` [MMV1557856] it was 3.0%; in that of `Cc1cc(C)n(O)c(=O)c1` [MMV1782389], -20.7%.
With `O=C1NC(=O)C(Br)=C1Br` [MMV1578554], the “% of growth inhibition, Mean” value is listed as -14.5%.
In the case of `O=C(NO)C1(CS(=O)(=O)c2ccc(Oc3ccc(Cl)cc3)cc2)CCOCC1` [MMV690706] it was -11.0%; in that of `C[C@@H](NC(=O)c1ccccc1-c1ccccc1)B(O)O` [MMV1582493], -37.1%; in that of `C[C@H](c1cccc2ccccc12)N(C)Cc1ccccc1` [MMV1782221], -14.5%.
On to `Cc1ccc(N2CCC(CCOc3ccc(S(C)(=O)=O)cc3)CC2)nn1` [MMV1634394], for which the “% of growth inhibition, Mean” value turned out to be 3.3%.
Take `CC[N+]1(C/C2=C/CCCCCC2)CCC(NC(=O)C2c3cc(Cl)ccc3Oc3ccc(Cl)cc32)CC1.[I-]` (centres unmarked) [MMV1580489]: the “% of growth inhibition, Mean” value is -4.5%.
With `O=C(NC(=O)N1CCCc2ccccc21)c1ccc(Cl)cc1Cl` [MMV1782218], the “% of growth inhibition, Mean” value is given as -21.0%.
As for `CC(Cc1ccccc1)C(=O)Nc1ccc(Cl)cc1C(=O)O` (centres unmarked) [MMV1579781], the “% of growth inhibition, Mean” value was -32.3%.
In the case of `CCCCCCCCC(CP(=O)(O)C(C)N)C(=O)O` (centres unmarked) [MMV1582487] it was -11.5%; in that of `COc1ccc(CNC(=O)C2CCN(C(C)c3cccc4ccccc34)CC2)cc1` (centres unmarked) [MMV1634397], -12.7%.
With `O=C(O)COc1cccc2c1CC[C@](O)(COC(=O)N(c1ccccc1)c1ccccc1)C2` [MMV1782352], the “% of growth inhibition, Mean” value is on record as -13.6%.
In the case of `CO[C@@]1(NC(=O)Cc2cccs2)C(=O)N2C(C(=O)O)=C(COC(N)=O)CS[C@@H]21` [MMV1578559], the “% of growth inhibition, Mean” value is reported as -22.5%.
In the case of `Nc1nc2c(ncn2[C@@H]2O[C@H](CO)[C@@H](O)[C@H]2F)c(=O)[nH]1` [MMV1633677] it was -10.0%; in that of `OC(Cn1cncn1)(Cn1cncn1)c1ccc(F)cc1F` [MMV002337], -36.5%; in that of `O=C(CCCC(F)(F)F)N1CCC(c2nc(-c3nccs3)no2)CC1` [MMV1582491], -26.7%.
For the compound `O=c1[nH]c(=O)n(Cc2cccc(Oc3ccccc3)c2)cc1Nc1ccccc1` [MMV1782107], the “% of growth inhibition, Mean” value is -3.3%.
